In US12565505B2, “mTORC modulators and uses thereof” (Aeovian Pharmaceuticals, Inc., priority 2019, dated 2026):

Tests used:
mTORC2 = biological target: T1, mTORC2 (Homo sapiens, UniProt P42345+P62942); assay: Inhibition assay for mTORC2: phosphorylation of pAkt at Ser473, AlphaLISA SureFire in PC3 cells; format: cell-based; settings: PC3 cells, 24 hours treatment, analogs substituted at C40 and C16 (C16 diastereomer mixtures not isolated), read-out: pIC50 mTORC2 (converted)
T1 construct: endogenous in cells; host or cells: PC3 cells (human prostate adenocarcinoma)
Procedure: The IC50s of the inhibition of mTORC1 and mTORC2 were determined in vitro by determining the phosphorylation of pS6K at position Thr389 (mTORC1 inhibition) and pAkt at Ser473 (mTORC2 inhibition). In vitro studies were performed with AiphaLISA® technology using PC3 cells (Prostate Adenocarcinoma; Human (Homo sapiens)). The cells were seeded in 96 well plates and were treated for 24 hours with the different compounds. […] All analysis were performed using GraphPad Prism 7.0 (GraphPad Software, San Diego, USA). […]

mTORC1 = biological target: T2, mTORC1 (Homo sapiens, UniProt P42345+P62942); assay: Inhibition assay for mTORC1: phosphorylation of pS6K at Thr389, AlphaLISA SureFire in PC3 cells; format: cell-based; settings: PC3 cells, 24 hours treatment, pS6K Thr389; analogs substituted at C40 and C16 (C16 diastereomer mixtures not isolated); read-out: pIC50 mTORC1 (converted)
T2 construct: endogenous in cells; host or cells: PC3 cells (human prostate adenocarcinoma)
Procedure: The IC50s of the inhibition of mTORC1 and mTORC2 were determined in vitro by determining the phosphorylation of pS6K at position Thr389 (mTORC1 inhibition) and pAkt at Ser473 (mTORC2 inhibition). In vitro studies were performed with AiphaLISA® technology using PC3 cells (Prostate Adenocarcinoma; Human (Homo sapiens)). The cells were seeded in 96 well plates and were treated for 24 hours with the different compounds. […] All analysis were performed using GraphPad Prism 7.0 (GraphPad Software, San Diego, USA).
Tables 5-7 include PIC50 values for mTORC1 of selected compounds; with compounds having an PIC50 for mTORC1 of >9.5 as A, 8.5 to 9.5 as B, and less than 8.5 as C.

IC50 (mTORC2) | IC50 (mTORC1) | Compound
> 10000 nM | 0.316 to 3.16 nM | CO[C@@H]1C[C@H](C[C@@H](C)[C@@H]2CC(=O)[C@H](C)/C=C(\C)[C@@H](O)[C@@H](OC)C(=O)[C@H](C)C[C@H](C)/C=C/C=C/C=C(\C)C(OCCOCCO)C[C@@H]3CC[C@@H](C)[C@@](O)(O3)C(=O)C(=O)N3CCCCC3C(=O)O2)CC[C@H]1OCCCO (stereo partly drawn) [Compound 53]
1000 to 10000 nM | < 0.316 nM | COCCOC1C[C@@H]2CC[C@@H](C)[C@@](O)(O2)C(=O)C(=O)N2CCCCC2C(=O)O[C@H]([C@H](C)C[C@@H]2CC[C@@H](OCCCN3CCO[C@H](C)C3)[C@H](OC)C2)CC(=O)[C@H](C)/C=C(\C)[C@@H](O)[C@@H](OC)C(=O)[C@H](C)C[C@H](C)/C=C/C=C/C=C/1C (stereo partly drawn) [Compound 36]
> 10000 nM | < 0.316 nM | COCCOCCOC1C[C@@H]2CC[C@@H](C)[C@@](O)(O2)C(=O)C(=O)N2CCCCC2C(=O)O[C@H]([C@H](C)C[C@@H]2CC[C@@H](OCCO)[C@H](OC)C2)CC(=O)[C@H](C)/C=C(\C)[C@@H](O)[C@@H](OC)C(=O)[C@H](C)C[C@H](C)/C=C/C=C/C=C/1C (stereo partly drawn) [Compound 20]
> 10000 nM | < 0.316 nM | COCCCO[C@@H]1CC[C@@H](C[C@@H](C)[C@@H]2CC(=O)[C@H](C)/C=C(\C)[C@@H](O)[C@@H](OC)C(=O)[C@H](C)C[C@H](C)/C=C/C=C/C=C(\C)C(OCCO)C[C@@H]3CC[C@@H](C)[C@@](O)(O3)C(=O)C(=O)N3CCCCC3C(=O)O2)C[C@H]1OC (stereo partly drawn) [Compound 3]
1000 to 10000 nM | < 0.316 nM | CO[C@@H]1C[C@H](C[C@@H](C)[C@@H]2CC(=O)[C@H](C)/C=C(\C)[C@@H](O)[C@@H](OC)C(=O)[C@H](C)C[C@H](C)/C=C/C=C/C=C(\C)C(OC[C@H](O)c3ccccc3)C[C@@H]3CC[C@@H](C)[C@@](O)(O3)C(=O)C(=O)N3CCCCC3C(=O)O2)CC[C@H]1OCCO (stereo partly drawn) [Compound 88]
> 10000 nM | > 3.16 nM | CO[C@@H]1C[C@H](C[C@@H](C)[C@@H]2CC(=O)[C@H](C)/C=C(\C)[C@@H](O)[C@@H](OC)C(=O)[C@H](C)C[C@H](C)/C=C/C=C/C=C(\C)C(OC(C)C)C[C@@H]3CC[C@@H](C)[C@@](O)(O3)C(=O)C(=O)N3CCCCC3C(=O)O2)CC[C@H]1OCCCc1ccccc1 (stereo partly drawn) [Compound 96]
1000 to 10000 nM | < 0.316 nM | COCCOC1C[C@@H]2CC[C@@H](C)[C@@](O)(O2)C(=O)C(=O)N2CCCCC2C(=O)O[C@H]([C@H](C)C[C@@H]2CC[C@@H](OCCCCN3CCOCC3)[C@H](OC)C2)CC(=O)[C@H](C)/C=C(\C)[C@@H](O)[C@@H](OC)C(=O)[C@H](C)C[C@H](C)/C=C/C=C/C=C/1C (stereo partly drawn) [Compound 56]
< 1000 nM | < 0.316 nM | CO[C@@H]1C[C@H](C[C@@H](C)[C@@H]2CC(=O)[C@H](C)/C=C(\C)[C@@H](O)[C@@H](OC)C(=O)[C@H](C)C[C@H](C)/C=C/C=C/C=C(\C)C(OCCc3ccccc3)C[C@@H]3CC[C@@H](C)[C@@](O)(O3)C(=O)C(=O)N3CCCCC3C(=O)O2)CC[C@H]1OCCCN1CCCCC1 (stereo partly drawn) [Compound 101]
1000 to 10000 nM | < 0.316 nM | COCCOC1C[C@@H]2CC[C@@H](C)[C@@](O)(O2)C(=O)C(=O)N2CCCCC2C(=O)O[C@H]([C@H](C)C[C@@H]2CC[C@@H](OCCCN3CCC[C@H](O)C3)[C@H](OC)C2)CC(=O)[C@H](C)/C=C(\C)[C@@H](O)[C@@H](OC)C(=O)[C@H](C)C[C@H](C)/C=C/C=C/C=C/1C (stereo partly drawn) [Compound 54]
< 1000 nM | < 0.316 nM | CO[C@@H]1C[C@H](C[C@@H](C)[C@@H]2CC(=O)[C@H](C)/C=C(\C)[C@@H](O)[C@@H](OC)C(=O)[C@H](C)C[C@H](C)/C=C/C=C/C=C(\C)C(OCc3ccccc3)C[C@@H]3CC[C@@H](C)[C@@](O)(O3)C(=O)C(=O)N3CCCCC3C(=O)O2)CC[C@H]1OC(=O)NCCc1ccccc1 (stereo partly drawn) [Compound 117]
< 1000 nM | < 0.316 nM | CO[C@@H]1C[C@H](C[C@@H](C)[C@@H]2CC(=O)[C@H](C)/C=C(\C)[C@@H](O)[C@@H](OC)C(=O)[C@H](C)C[C@H](C)/C=C/C=C/C=C(\C)C(OCCc3ccccc3)C[C@@H]3CC[C@@H](C)[C@@](O)(O3)C(=O)C(=O)N3CCCCC3C(=O)O2)CC[C@H]1OC(=O)N(C)CCN(C)C (stereo partly drawn) [Compound 109]
1000 to 10000 nM | < 0.316 nM | COCCCCOC1C[C@@H]2CC[C@@H](C)[C@@](O)(O2)C(=O)C(=O)N2CCCCC2C(=O)O[C@H]([C@H](C)C[C@@H]2CC[C@@H](OCCO)[C@H](OC)C2)CC(=O)[C@H](C)/C=C(\C)[C@@H](O)[C@@H](OC)C(=O)[C@H](C)C[C@H](C)/C=C/C=C/C=C/1C (stereo partly drawn) [Compound 102]
> 10000 nM | 0.316 to 3.16 nM | CO[C@@H]1C[C@H](C[C@@H](C)[C@@H]2CC(=O)[C@H](C)/C=C(\C)[C@@H](O)[C@@H](OC)C(=O)[C@H](C)C[C@H](C)/C=C/C=C/C=C(\C)C(OCCO)C[C@@H]3CC[C@@H](C)[C@@](O)(O3)C(=O)C(=O)N3CCCCC3C(=O)O2)CC[C@H]1OC(=O)NCCO (stereo partly drawn) [Compound 64]
> 10000 nM | < 0.316 nM | CO[C@@H]1CC[C@@H](C[C@@H](C)[C@@H]2CC(=O)[C@H](C)/C=C(\C)[C@@H](O)[C@@H](OC)C(=O)[C@H](C)C[C@H](C)/C=C/C=C/C=C(\C)C(OCCCO)C[C@@H]3CC[C@@H](C)[C@@](O)(O3)C(=O)C(=O)N3CCCCC3C(=O)O2)C[C@H]1OC (stereo partly drawn) [Compound 19]
< 1000 nM | < 0.316 nM | CO[C@@H]1C[C@H](C[C@@H](C)[C@@H]2CC(=O)[C@H](C)/C=C(\C)[C@@H](O)[C@@H](OC)C(=O)[C@H](C)C[C@H](C)/C=C/C=C/C=C(\C)C(OCCc3ccccc3)C[C@@H]3CC[C@@H](C)[C@@](O)(O3)C(=O)C(=O)N3CCCCC3C(=O)O2)CC[C@H]1OC(=O)NCCN(C)C (stereo partly drawn) [Compound 104, [(1R,2R,4S)-4-[(2R)-2-[(1R,9S,12S,15R,16E,18R,19R,21R,23S,24E,26E,28E,32S,35R)-1,18-dihydroxy-19-methoxy-15,17,21,23,29,35-hexamethyl-2,3,10,14,20-pentaoxo-30-(2-phenylethoxy)-11,36-dioxa-4-azatricyclo[30.3.1.0^4,9]hexatriaconta-16,24,26,28-tetraen-12-yl]propyl]-2-methoxy-cyclohexyl] N-[2-(dimethylamino)ethyl]carbamate]
< 1000 nM | < 0.316 nM | CO[C@@H]1C[C@H](C[C@@H](C)[C@@H]2CC(=O)[C@H](C)/C=C(\C)[C@@H](O)[C@@H](OC)C(=O)[C@H](C)C[C@H](C)/C=C/C=C/C=C(\C)C(OCCc3ccccc3)C[C@@H]3CC[C@@H](C)[C@@](O)(O3)C(=O)C(=O)N3CCCCC3C(=O)O2)CC[C@H]1OC(=O)N(C)CCO (stereo partly drawn) [Compound 105]
1000 to 10000 nM | < 0.316 nM | COCCOC1C[C@@H]2CC[C@@H](C)[C@@](O)(O2)C(=O)C(=O)N2CCCCC2C(=O)O[C@H]([C@H](C)C[C@@H]2CC[C@@H](OCCCN3CCCCC3)[C@H](OC)C2)CC(=O)[C@H](C)/C=C(\C)[C@@H](O)[C@@H](OC)C(=O)[C@H](C)C[C@H](C)/C=C/C=C/C=C/1C (stereo partly drawn) [Compound 35]
1000 to 10000 nM | < 0.316 nM | COCCOC1C[C@@H]2CC[C@@H](C)[C@@](O)(O2)C(=O)C(=O)N2CCCCC2C(=O)O[C@H]([C@H](C)C[C@@H]2CC[C@@H](OCCCO)[C@H](OC)C2)CC(=O)[C@H](C)/C=C(\C)[C@@H](O)[C@@H](OC)C(=O)[C@H](C)C[C@H](C)/C=C/C=C/C=C/1C (stereo partly drawn) [Compound 28]
